Read-outs that look alike come from different tables or passages of the source.
Experiments:
[1] = Metabolic stability in human liver microsomes; type: in vitro ADME; conditions: human liver microsomes 0.5 mg protein/mL, test compound 1 μM, 37° C.; read-out: T1/2 in HLM
Description: (§1) The metabolic stability of the compounds disclosed herein was determined by measuring half-life (T1/2) of the compounds in the presence of mouse liver microsomes (MLM) or human liver microsomes (BILM).
(§2) Intermediate solution: 5 μL of compound and control stock solution (10 mM in dimethyl sulfoxide (DMSO)) were diluted with 495 μL of acetonitrile (ACN) (intermediate solution concentration: 100 μM, 99% ACN).
(§3) Working solution: 50 μL of compound and control intermediate solution (100 μM) were diluted with 450 μL of 100 mM potassium phosphate buffer (working solution concentration: 10 μM, 9.9% ACN).
(§4) Controls used in this assay: Testosterone, Diclofenac, and Propafenone.
(§5) Preparation Procedure: The appropriate amount of NADPH powder was weighed and diluted into a 10 mM MgCl2 solution (working solution concentration: 10 unit/mL; final concentration in reaction system: 1 unit/mL).
(§6) The appropriate concentrations of microsome working solutions were prepared in 100 mM potassium phosphate buffer.
(§7) Cold (4° C.) acetonitrile (CAN) containing 200 ng/mL tolbutamide and 200 ng/mL labetalol as internal standards (IS) was used as the stop solution.
(§8) Using an Apricot automation workstation, 10 μL/well of compound working solution were added to all 96-well reaction plates except the blank (T0, T5, T10, T20, T30, T60, and NCF60).
(§9) An Apricot automation workstation was used to add 80 μL/well of microsome solution to all reaction plates (Blank, T0, T5, T10, T20, T30, T60, and NCF60).
(§10) All reaction plates containing mixtures of compound and microsomes were pre-incubated at 37° C. for 10 minutes.
(§11) An Apricot automation workstation was used to add 10 μL/well of 100 mM potassium phosphate buffer to reaction plate NCF60.
(§12) Reaction plate NCF60 was incubated at 37° C. for 60 minutes.
(§13) After pre-incubation, an Apricot automation workstation was used to add 10 μL/well of NADPH regenerating system to every reaction plate except NCF60 (Blank, T0, T5, T10, T20, T30, and T60) to start the reaction. Final concentration of each component in incubation medium: Microsome (0.5 mg protein/mL); Test Compound (1 μM); Control Compound (1 μM); Acetonitrile (0.99%); DMSO (0.01%).
(§14) The reaction plates were incubated at 37° C. for 0 minute (T0, stop solution was added prior to microsome and NADPH solutions), 5 minutes (T5), 10 minutes (T10), 20 minutes (T20), 30 minutes (T30), 60 minutes (T60).
(§15) An Apricot automation workstation was used to add 300 μL/well of stop solution to each reaction plate at its appropriate end time point to terminate the reaction.
(§16) Each plate was sealed and shaken for 10 minutes.
(§17) After shaking, each plate was centrifuged at 4000 rpm and 4° C. for 20 minutes.
(§18) During centrifugation, an Apricot automation workstation was used to add 300 µL/well of HPLC grade water to eight new 96-well plates.
(§19) After centrifugation, an Apricot automation workstation was used to transfer 100 μL of supernatant from each reaction plate to its corresponding bioanaylsis plate.
(§20) Each bioanalysis plate was sealed and shaken for 10 minutes prior to LC-MS/MS analysis.
(§21) The equation of first order kinetics was used to calculate T1/2 and CLint(mic) (μL/min/mg).

[2] = biological target: T1, geranylgeranyl transferase type-1 (GGTase) (Homo sapiens, UniProt P53609); assay: GGTase fluorescence assay (dansyl-GCVLL peptide, GGPP); type: biochemical; conditions: GGTase 25 nM, Dansyl-GCVLL 10 μM, GGPP 10 μM, 30° C., 120 minutes
T1 construct: purchased Crelux (Martinsried, Germany)
Text: T24/83 cell line was purchased from the European Collection of Authenticated Cell Cultures (Salisbury, UK). Recombinant human farnesyl transferase (FTase) and geranylgeranyl transferase type-1 (GGTase) were obtained from Crelux (Martinsried, Germany). Dansyl labelled GCVLS peptide was purchased from Bachem (Torrance, CA), and Dansyl labelled GCVLL peptide was purchased from Bio Synthesis (Lewisville, TX). Farnesyl Pyrophosphate (FPP) and Geranylgeranyl pyrophosphate (GGPP) were purchased from Cayman (Ann Arbor, MI).
Geranylgeranyl transferase (GGTase) is a closely related enzyme to farnesyl transferase (FTase). The two enzymes share a common regulatory chain but have distinct individual enzymatic domains. GGTase catalyses the addition of an alternative prenylated side chain to some of the same proteins that may also be farnesylated. Thus, selective inhibitory activity against FTase relative to GGTase is a critical characteristic for FTase inhibitors.
The IC50 value of the compounds disclosed herein as inhibitors of Ftase and/or GGTase, was determined by measuring the concentration (provided in nM) necessary to achieve inhibition of enzyme activity by 50% (IC50). […] Compounds having a low IC50 value against FTase, for example an IC50 (FTase)<100 nM, such as an IC50 (FTase)<10 nM, are preferred. Compounds having a low IC50 value against FTase and a high IC50 value against GGTase, for example an IC50 (FTase)<100 nM, such as an IC50 (FTase)<10 nM, and an IC50 (GGTase)>100 nM, are potent and selective inhibitors of FTase, and are particularly preferred.
The inhibition activities of the compounds disclosed herein against Ftase and GGTase were measured in the respective fluorescence assays as follows:
For the GGTase assay, GGTase (25 nM), Dansyl labelled GCVLL peptide (10 μM), GGPP (10 μM) and inhibitor were mixed in assay buffer (50 mM Tris, pH 7.5, 10 mM magnesium chloride, 10 μM zinc chloride, 0.08% CHAPS, 5 mM dithiothreitol) and incubated in a total volume of 20 μL at 30° C. for 120 minutes.
For both the FTase assay and GGTase assay, fluorescence intensity was detected (excitation at 340 nm and emission at 486 nm) using EnVision (PerkinElmer; Waltham, MA), IC50 determinations were performed using a sigmoidal dose-response model with Xlfit software (IDBS, Inc.; Boston, MA), and tipifarnib was used as a positive control. All the assay plates for each assay passed the QC criteria (S/B, Z factor).

[3] = biological target: T2, Recombinant human farnesyl transferase (FTase) (Homo sapiens, UniProt P49356); assay: FTase fluorescence assay (farnesylation of dansyl-GCVLS peptide); type: biochemical; conditions: recombinant human FTase 2.5 nM, Dansyl-GCVLS 85 nM, FPP 30 nM, 30° C., 50 minutes
T2 construct: purchased Crelux (Martinsried, Germany)

T24/83 cells = assay: T24/83 cell proliferation assay (CellTiter-Glo); type: cell-based; conditions: Homo sapiens, 96 h, 4 days
Summary of the method: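 HRAS-mutant T24/83 bladder carcinoma cells seeded at 100 cells/well and grown with inhibitor for 4 days at 37 °C; 0.7% DMSO negative control, 100 μM tipifarnib positive control. Viability by CellTiter-Glo luminescence.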

[4] = Metabolic stability in mouse liver microsomes; type: in vitro ADME; conditions: CD-1 mouse liver microsomes 0.5 mg protein/mL, test compound 1 μM, 37° C.; read-out: T1/2 in MLM
Description: as §1, §2, §3, §4, §5, §6, §7, §8, §9, §10, §11, §12, §13, §14, §15, §16, §17, §18, §19, §20, §21

[5] = ether bond

Compound | half-life at 1 μM [1] | IC50 [2] | IC50 [3] | IC50 (T24/83 cells) | half-life at 1 μM [4] | ring closure, yield of all isomers ([5]; from COc1cc(-c2cccc(O)c2)c2cc(C(O)(c3ccc(Cl)c(CO)c3)c3cncn3C)ccc2n1, Cs2CO3, THF, 9.5 mM, 105.0 °C, 10.0 h, 2 steps) | ring closure, yield of all isomers ([5]; from COc1cc(-c2cccc(O)c2)c2cc(C(O)(c3ccc(Cl)c(CCl)c3)c3nncn3C)ccc2n1, K2CO3, DMF, 29.8 mM, 55.0 °C, 12.0 h) | ring closure, yield of all isomers ([5]; from COc1cc(-c2cccc(O)c2)c2cc(C(O)(c3ccc(Br)c(CO)c3)c3cncn3C)ccc2n1, Cs2CO3, DMF, 122.7 mM, 70.0 °C, 0.5 h, 2 steps)
Cn1cncc1[C@@]1(N)c2ccc(Cl)c(c2)OCCc2cccc(c2)-c2cc(=O)n(C)c3ccc1cc23 [(S)-27, (S)-3-amino-4^4-chloro-2^1-methyl-3-(1-methyl-1H-imidazol-5-yl)-2^1,2^2-dihydro-5-oxa-2(4,6)-quinolina-1,4(1,3)-dibenzenacycloheptaphan-2^2-one] | < 30 min | > 1 µM | ≤ 0.01 µM | ≤ 0.05 µM | < 5 min |  |  | 
[2H]C([2H])([2H])n1c(=O)cc2c3cc(ccc31)[C@@](N)(c1nncn1C)c1ccc(Cl)c(c1)OCCc1cccc-2c1 [(S)-34, (S)-3-amino-4^4-chloro-2^1-(methyl-d3)-3-(4-methyl-4H-1,2,4-triazol-3-yl)-2^1,2^2-dihydro-5-oxa-2(4,6)-quinolina-1,4(1,3)-dibenzenacycloheptaphan-2^2-one] | < 30 min | > 1 µM | ≤ 0.01 µM | 0.05 to 0.5 µM | 5 to 15 min |  |  | 
Cn1cncc1[C@@]1(N)c2ccc(C#N)c(c2)OCCc2cccc(c2)-c2cc(=O)n(C)c3ccc1cc23 [(S)-37, (S)-3-amino-2^1-methyl-3-(1-methyl-1H-imidazol-5-yl)-2^2-oxo-2^1,2^2-dihydro-5-oxa-2(4,6)-quinolina-1,4(1,3)-dibenzenacycloheptaphane-4^4-carbonitrile] | < 30 min | > 1 µM | ≤ 0.01 µM | ≤ 0.05 µM | < 5 min |  |  | 
Cn1cncc1[C@@]1(N)c2ccc(Cl)c(c2)COc2cccc(c2)-c2cc(=O)n(C)c3ccc1cc23 [(S)-46, (S)-3-amino-4^4-chloro-2^1-methyl-3-(1-methyl-1H-imidazol-5-yl)-2^1,2^2-dihydro-6-oxa-2(4,6)-quinolina-1,4(1,3)-dibenzenacyclohexaphan-2^2-one] | > 100 min | > 1 µM | ≤ 0.01 µM | ≤ 0.05 µM | 5 to 15 min |  |  | 
[2H]C([2H])([2H])n1c(=O)cc2c3cc(ccc31)[C@@](N)(c1cncn1C)c1ccc(Cl)c(c1)COc1cccc-2c1 [(S)-47, (S)-3-amino-4^4-chloro-2^1-(methyl-d3)-3-(1-methyl-1H-imidazol-5-yl)-2^1,2^2-dihydro-6-oxa-2(4,6)-quinolina-1,4(1,3)-dibenzenacyclohexaphan-2^2-one] | > 100 min | > 1 µM | ≤ 0.01 µM | ≤ 0.05 µM | 5 to 15 min |  |  | 
Cn1cnnc1[C@@]1(N)c2ccc(Cl)c(c2)COc2cccc(c2)-c2cc(=O)n(C)c3ccc1cc23 [(S)-51, (S)-3-amino-4^4-chloro-2^1-methyl-3-(4-methyl-4H-1,2,4-triazol-3-yl)-2^1,2^2-dihydro-6-oxa-2(4,6)-quinolina-1,4(1,3)-dibenzenacyclohexaphan-2^2-one] | > 100 min | > 1 µM | ≤ 0.01 µM | 0.05 to 0.5 µM | > 15 min |  |  | 
[2H]C([2H])([2H])n1c(=O)cc2c3cc(ccc31)[C@@](N)(c1cncn1C)c1ccc(C#N)c(c1)COc1cccc-2c1 [(S)-56, (S)-3-amino-2^1-(methyl-d3)-3-(1-methyl-1H-imidazol-5-yl)-2^2-oxo-2^1,2^2-dihydro-6-oxa-2(4,6)-quinolina-1,4(1,3)-dibenzenacyclohexaphane-4^4-carbonitrile] | > 100 min | > 1 µM | ≤ 0.01 µM | ≤ 0.05 µM | > 15 min |  |  | 
Cn1cncc1[C@@]1(N)c2ccc(C#N)c(c2)COc2cccc(c2)-c2cc(C#N)nc3ccc1cc23 [(S)-58, (S)-3-amino-3-(1-methyl-1H-imidazol-5-yl)-6-oxa-2(4,6)-quinolina-1,4(1,3)-dibenzenacyclohexaphane-2^2 4^4-dicarbonitrile] | > 100 min | > 1 µM | ≤ 0.01 µM | ≤ 0.05 µM | > 15 min |  |  | 
COc1cc2c3cc(ccc3n1)C(O)(c1cncn1C)c1ccc(Cl)c(c1)COc1cccc-2c1 (stereo not drawn) [Compound 43, 4^4-chloro-2^2-methoxy-3-(1-methyl-1H-imidazol-5-yl)-6-oxa-2(4,6)-quinolina-1,4(1,3)-dibenzenacyclohexaphan-3-ol] |  |  | 0.01 to 0.1 µM |  |  | 82.9% |  | 
COc1cc2c3cc(ccc3n1)C(O)(c1nncn1C)c1ccc(Cl)c(c1)COc1cccc-2c1 (stereo not drawn) [Compound 49, 4^4-chloro-2^2-methoxy-3-(4-methyl-4H-1,2,4-triazol-3-yl)-6-oxa-2(4,6)-quinolina-1,4(1,3)-dibenzenacyclohexaphan-3-ol] |  |  | > 0.1 µM |  |  |  | 19% | 
COc1cc2c3cc(ccc3n1)C(O)(c1cncn1C)c1ccc(Br)c(c1)COc1cccc-2c1 (stereo not drawn) [Compound 52, 4^4-bromo-2^2-methoxy-3-(1-methyl-1H-imidazol-5-yl)-6-oxa-2(4,6)-quinolina-1,4(1,3)-dibenzenacyclohexaphan-3-ol] |  |  | 0.01 to 0.1 µM |  |  |  |  | 84.8%
Cn1cncc1[C@@](N)(c1ccc(Cl)cc1)c1ccc2c(c1)c(-c1cccc(Cl)c1)cc(=O)n2C [Tipifarnib, tipifarnib, reference compound] | < 30 min | > 1 µM | ≤ 0.01 µM | ≤ 0.05 µM | < 5 min |  |  | 

From patent US12018011B2, “Macrocyclic compounds and compositions, and methods of preparing and using the same” (Kura Oncology, Inc., priority 2021, dated 2024)
